Measurements published in patent US20050070510A1, “Substituted tetracycline compounds as synergistic antifungal agents” (Paratek Pharmaceuticals, Inc., priority 2001, published 2005).

test system: COS-1 cells; experiment: In vitro mammalian cytotoxicity assay (Resazurin)

Structure (SMILES) | In Vitro Cytotoxicity
COc1cc(-c2ccc(O)c3c2C[C@@]2(N)C[C@@]4(N)[C@H](N(C)C)C(O)=C(C(N)=O)C(=O)[C@@]4(C#N)C(O)=C2C3=O)cc(OC)c1OC [OK] | ** (toxicities less than 25 μg/mL are represented by **)
COc1ccc2c(c1)cc1c3c(c(O)ccc32)C(=O)C2=C(O)[C@]3(C#N)C(=O)C(C(N)=O)=C(O)[C@@H](N(C)C)[C@]3(N)C[C@@]21N [OL] | ** (toxicities less than 25 μg/mL are represented by **)
COc1ccc(-c2ccc(O)c3c2C[C@@]2(N)C[C@@]4(N)[C@H](N(C)C)C(O)=C(C(N)=O)C(=O)[C@@]4(C#N)C(O)=C2C3=O)c(OC)c1 [OM] | ** (toxicities less than 25 μg/mL are represented by **)
CN(C)[C@@H]1C(O)=C(C(N)=O)C(=O)[C@@]2(C#N)C(O)=C3C(=O)c4c(O)ccc(-c5ccc(CN6CCOCC6)c6ccccc56)c4C[C@@]3(N)C[C@@]12N [ON] | ** (toxicities less than 25 μg/mL are represented by **)
CN(C)[C@@H]1C(O)=C(C(N)=O)C(=O)[C@@]2(C#N)C(O)=C3C(=O)c4c(O)ccc(-c5ccc(CN6CCCC6)c6ccccc56)c4C[C@@]3(N)C[C@@]12N [OO] | ** (toxicities less than 25 μg/mL are represented by **)
CCCN(CCC)Cc1ccc(-c2ccc(O)c3c2C[C@@]2(N)C[C@@]4(N)[C@H](N(C)C)C(O)=C(C(N)=O)C(=O)[C@@]4(C#N)C(O)=C2C3=O)c2ccccc12 [OP] | ** (toxicities less than 25 μg/mL are represented by **)
CCOC(=O)CNCc1ccc(-c2ccc(O)c3c2C[C@@]2(N)C[C@@]4(N)[C@H](N(C)C)C(O)=C(C(N)=O)C(=O)[C@@]4(C#N)C(O)=C2C3=O)c2ccccc12 [OQ] | ** (toxicities less than 25 μg/mL are represented by **)
CCOc1ccc(-c2ccc(O)c3c2C[C@@]2(N)C[C@@]4(N)[C@H](N(C)C)C(O)=C(C(N)=O)C(=O)[C@@]4(C#N)C(O)=C2C3=O)cc1CN [OR] | * (toxicities greater than >25 μg/ml are represented by *)
CCOC(=O)CNCc1ccc(-c2ccc(O)c3c2C[C@@]2(N)C[C@@]4(N)[C@H](N(C)C)C(O)=C(C(N)=O)C(=O)[C@@]4(C#N)C(O)=C2C3=O)cc1 [OS] | ** (toxicities less than 25 μg/mL are represented by **)
CC(C)NCc1ccc(-c2ccc(O)c3c2C[C@@]2(N)C[C@@]4(N)[C@H](N(C)C)C(O)=C(C(N)=O)C(=O)[C@@]4(C#N)C(O)=C2C3=O)cc1 [OT] | * (toxicities greater than >25 μg/ml are represented by *)
CN(C)[C@@H]1C(O)=C(C(N)=O)C(=O)[C@@]2(C#N)C(O)=C3C(=O)c4c(O)c(C(C)(C)C)cc(-c5cnc6ccccc6c5)c4C[C@@]3(N)C[C@@]12N [OV] | * (toxicities greater than >25 μg/ml are represented by *)
COc1ccc(C=O)cc1-c1ccc(O)c2c1C[C@@]1(N)C[C@@]3(N)[C@H](N(C)C)C(O)=C(C(N)=O)C(=O)[C@@]3(C#N)C(O)=C1C2=O [OW] | * (toxicities greater than >25 μg/ml are represented by *)
CN(C)c1ccc(-c2cc(F)c(O)c3c2C[C@@]2(N)C[C@@]4(N)[C@H](N(C)C)C(O)=C(C(N)=O)C(=O)[C@@]4(C#N)C(O)=C2C3=O)cc1 [OX] | ** (toxicities less than 25 μg/mL are represented by **)
CN(C)c1ccc(-c2ccc3c(c2O)C(=O)C2=C(O)[C@]4(C#N)C(=O)C(C(N)=O)=C(O)[C@@H](N(C)C)[C@]4(N)[C@@H](O)[C@]2(N)[C@H]3O)cc1 [OY] | ** (toxicities less than 25 μg/mL are represented by **)
C=CCOC(=O)Nc1ccc(-c2ccc(O)c3c2C[C@@]2(N)C[C@@]4(N)[C@H](N(C)C)C(O)=C(C(N)=O)C(=O)[C@@]4(C#N)C(O)=C2C3=O)cc1 [OZ] | ** (toxicities less than 25 μg/mL are represented by **)
CN(C)[C@@H]1C(O)=C(C(N)=O)C(=O)[C@@]2(C#N)C(O)=C3C(=O)c4c(O)ccc(-c5ccc(NC(=O)C6CC6)cc5)c4C[C@@]3(N)C[C@@]12N [PB] | * (toxicities greater than >25 μg/ml are represented by *)
CN(C)CCNC(=O)c1ccc(-c2ccc(O)c3c2C[C@@]2(N)C[C@@]4(N)[C@H](N(C)C)C(O)=C(C(N)=O)C(=O)[C@@]4(C#N)C(O)=C2C3=O)cc1 [PC] | * (toxicities greater than >25 μg/ml are represented by *)
CCNC(=O)CNC(=O)c1cccc(-c2ccc(O)c3c2C[C@@]2(N)C[C@@]4(N)[C@H](N(C)C)C(O)=C(C(N)=O)C(=O)[C@@]4(C#N)C(O)=C2C3=O)c1 [PD] | * (toxicities greater than >25 μg/ml are represented by *)
CCc1cc(-c2ccc(N(C)C)cc2)c2c(c1O)C(=O)C1=C(O)[C@]3(C#N)C(=O)C(C(N)=O)=C(O)[C@@H](N(C)C)[C@]3(N)C[C@]1(N)C2 [PE] | ** (toxicities less than 25 μg/mL are represented by **)
CN(C)[C@@H]1C(O)=C(C(N)=O)C(=O)[C@@]2(C#N)C(O)=C3C(=O)c4c(O)ccc(-c5ccc(NC(=O)OC(C)(C)C)cc5)c4C[C@@]3(N)C[C@@]12N [PF] | ** (toxicities less than 25 μg/mL are represented by **)
CN(C)[C@@H]1C(O)=C(C(N)=O)C(=O)[C@@]2(C#N)C(O)=C3C(=O)c4c(O)ccc(-c5ccc(NC(=O)Nc6ccc(OC(F)(F)F)cc6)cc5)c4C[C@@]3(N)C[C@@]12N [PH] | * (toxicities greater than >25 μg/ml are represented by *)
COc1ccc(CNCc2ccc(-c3ccc(O)c4c3C[C@@]3(N)C[C@@]5(N)[C@H](N(C)C)C(O)=C(C(N)=O)C(=O)[C@@]5(C#N)C(O)=C3C4=O)cc2)cc1 [PI] | ** (toxicities less than 25 μg/mL are represented by **)
CN(C)[C@@H]1C(O)=C(C(N)=O)C(=O)[C@@]2(C#N)C(O)=C3C(=O)c4c(O)ccc(-c5ccc(CN6CCCC6)o5)c4C[C@@]3(N)C[C@@]12N [PJ] | * (toxicities greater than >25 μg/ml are represented by *)
Cc1ccc(-c2ccc(O)c3c2C[C@@]2(N)C[C@@]4(N)[C@H](N(C)C)C(O)=C(C(N)=O)C(=O)[C@@]4(C#N)C(O)=C2C3=O)cc1N [PK] | ** (toxicities less than 25 μg/mL are represented by **)
CN(C)[C@@H]1C(O)=C(C(N)=O)C(=O)[C@@]2(C#N)C(O)=C3C(=O)c4c(O)ccc(-c5ccc(I)c(C=O)c5)c4C[C@@]3(N)C[C@@]12N [PL] | ** (toxicities less than 25 μg/mL are represented by **)
CN(C)[C@@H]1C(O)=C(C(N)=O)C(=O)[C@@]2(C#N)C(O)=C3C(=O)c4c(O)ccc(-c5cc(F)cc(F)c5)c4C[C@@]3(N)C[C@@]12N [PM] | ** (toxicities less than 25 μg/mL are represented by **)
CN(C)[C@@H]1C(O)=C(C(N)=O)C(=O)[C@@]2(C#N)C(O)=C3C(=O)c4c(ccc(-c5ccc(C=O)c6ccccc56)c4O)[C@H](N)[C@@]3(N)[C@H](O)[C@@]12N [PN] | ** (toxicities less than 25 μg/mL are represented by **)
CN(C)[C@@H]1C(O)=C(C(N)=O)C(=O)[C@@]2(C#N)C(O)=C3C(=O)c4c(ccc(-c5ccc(C(=O)F)c6ccccc56)c4O)[C@H](N)[C@@]3(N)[C@H](O)[C@@]12N [PO] | ** (toxicities less than 25 μg/mL are represented by **)
CN(C)[C@@H]1C(O)=C(C(N)=O)C(=O)[C@@]2(C#N)C(O)=C3C(=O)c4c(ccc(-c5cccc(C(N)=O)c5)c4O)[C@H](N)[C@@]3(N)[C@H](O)[C@@]12N [PP] | ** (toxicities less than 25 μg/mL are represented by **)
